These are literature values, as cited in US12453729B2, “Pharmaceutical formulations” (AstraZeneca AB, priority 2020, dated 2025).

In series [1] the target is T1, ERα receptor (Homo sapiens, UniProt P03372).
T1 sequence (P03372 1-595): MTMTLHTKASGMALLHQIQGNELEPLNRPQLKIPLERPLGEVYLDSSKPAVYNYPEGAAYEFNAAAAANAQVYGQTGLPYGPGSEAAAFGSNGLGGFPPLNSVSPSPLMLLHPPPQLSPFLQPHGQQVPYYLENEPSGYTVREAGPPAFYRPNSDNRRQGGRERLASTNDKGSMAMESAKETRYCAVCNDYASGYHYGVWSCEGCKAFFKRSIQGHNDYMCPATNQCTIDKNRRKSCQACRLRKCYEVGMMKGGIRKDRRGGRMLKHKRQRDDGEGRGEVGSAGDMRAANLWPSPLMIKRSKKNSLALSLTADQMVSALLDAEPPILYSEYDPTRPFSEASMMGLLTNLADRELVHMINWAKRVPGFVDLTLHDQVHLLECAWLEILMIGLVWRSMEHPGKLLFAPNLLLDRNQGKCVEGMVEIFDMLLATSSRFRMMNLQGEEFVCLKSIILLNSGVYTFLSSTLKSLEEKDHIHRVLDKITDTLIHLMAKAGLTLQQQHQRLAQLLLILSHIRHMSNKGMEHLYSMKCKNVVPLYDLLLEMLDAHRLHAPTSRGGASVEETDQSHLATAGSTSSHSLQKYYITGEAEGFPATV
As to conditions: patient samples; 500 mg monthly dose.

Series [2] addresses T1, ERα receptor. As to conditions: in vitro breast cancer cell line experiments.

`C[C@]12CC[C@@H]3c4ccc(O)cc4C[C@@H](CCCCCCCCC[S+]([O-])CCCC(F)(F)C(F)(F)F)[C@H]3[C@@H]1CC[C@@H]2O` (some centres unmarked) [Fulvestrant]: at ERα receptor [1], the “turnover of the receptor” value is reported as “less than 50%”. The “down-regulation of the receptor” value at ERα receptor [2] is on record as “complete down-regulation”.
